Experimental data as given in publication PMC6270304, “Synthesis, Structure and Cytotoxic Activity of New Acetylenic Derivatives of Betulin” (Molecules, 2013).
Converted amounts (≈) assume the structure as drawn.

How the values were obtained:
[1] = tested on: CCRF/CEM (human leukemia); experiment: Antiproliferative assay in vitro (MTT); assay type: cell-based; details: for IC50: Homo sapiens, CCRF-CEM, read-out: Cytotoxic activity IC50, Human CCRF/CEM
Procedure: (§1) Cytotoxic activities of all newly synthesized compounds including betulin (1) were tested in SRB or MTT (in the case of leukemia cells) assay for their antiproliferative activity in vitro against three human cancer cell lines: SW707 (colorectal adenocarcinoma), CCRF/CEM (leukemia), T47D (breast cancer), and murine leukemia P388 as well as Balb3T3 normal fibroblasts cell lines. […] A value of less than 4 μg/mL was considered as an antiproliferative activity criterion for synthetic compounds [31].
(§2) The following established in vitro cell lines were applied: SW707 (human colorectal adenocarcinoma), CCRF/CEM (human leukemia), T47D (human breast cancer), P388 (mouse leukemia) and Balb3T3 (normal mouse fibroblasts). All lines were obtained from the American Type Culture Collection (Rockville, MD, USA) and maintained at the Cell Culture Collection of the Institute of Immunology and Experimental Therapy (Wroclaw, Poland).
(§3) Twenty-four hours before addition of the tested agents, the cells were plated in 96-well plates (Sarstedt, Numbrecht, Germany) at a density of 10^4 cells per well in 100 μL of culture medium. The cells were cultured in the opti-MEM medium supplemented with 2 mM glutamine (Gibco, Grand Island, NY, USA), streptomycin (50 μg/mL), penicillin (50 U/mL) (both antibiotics from Polfa, Tarchomin, Poland) and 5% fetal calf serum (Gibco). The cell cultures were maintained at 37 °C in humid atmosphere saturated with 5% CO2.
(§4) The compounds were dissolved in DMSO and culture medium (1:9) to the concentration of 1 mg/mL, and subsequently diluted in culture medium to reach the required concentrations (ranging from […]).
(§5) The in vitro cytotoxic effect of all agents was examined using the SRB assay for adherent cells and MTT assay for leukemia cells as described by Wietrzyk et al.. Each compound in given concentration was tested in triplicates in each experiment, which was repeated 3–5 times.

P388 (mouse leukemia) = experiment: Antiproliferative assay in vitro (MTT); assay type: cell-based; details: for IC50: Mus musculus, P388, read-out: Cytotoxic activity IC50, Murine P388
Procedure: as §1, §2, §3, §4, §5

[2] = tested on: Balb3T3 (normal mouse fibroblasts); experiment: Antiproliferative assay in vitro (SRB); assay type: cell-based
Procedure: as §1, §2, §3, §4, §5

[3] = tested on: SW707 (human colorectal adenocarcinoma); experiment: Antiproliferative assay in vitro (SRB); assay type: cell-based; details: for IC50: Homo sapiens, SW707, read-out: Cytotoxic activity IC50, Human SW707
Procedure: as §1, §2, §3, §4, §5

[4] = tested on: T47D (human breast cancer); experiment: Antiproliferative assay in vitro (SRB); assay type: cell-based; details: for IC50: Homo sapiens, T47D, read-out: Cytotoxic activity IC50, Human T47D
Procedure: as §1, §2, §3, §4, §5

| Structure (SMILES) | IC50 [1] [mg/L] | IC50 (P388 (mouse leukemia)) [mg/L] | Cytotoxic activity IC50, Murine Balb3T3 [2] | Cytotoxic activity IC50, Human SW707 [3] | Cytotoxic activity IC50, Human T47D [4] | melting point [°C] | IC50 [4] [mg/L] | Cytotoxic activity IC50, Human CCRF/CEM [1] | IC50 [3] [mg/L] | Cytotoxic activity IC50, Murine P388 (P388 (mouse leukemia)) | ID50 value against human leukemia (CCRF/CEM) cell line ([1]; CCRF/CEM, abstract wording) [mg/L] | selectivity index (SI) ([1]; ratio IC50 of normal fibroblast (Balb3T3) / IC50 on CCRF/CEM) |
| --- | --- | --- | --- | --- | --- | --- | --- | --- | --- | --- | --- | --- |
| C=C(C)C1CC[C@]2(COC(C)=O)CC[C@]3(C)C(CCC4[C@@]5(C)CC[C@H](OC(C)=O)C(C)(C)C5CC[C@]43C)C12 (stereo partly shown) [Compound 7b, 3,28-O,O'-diacetylbetulin] | 34.1 ± 6.4 (≈ 64.7 µM) | 40.2 ± 5 (≈ 76.3 µM) | Neg | Neg | Neg |  |  |  |  |  |  |  |
| C=C(C)C1CC[C@]2(COC(=O)OCC)CC[C@]3(C)C(CCC4[C@@]5(C)CC[C@H](OC(=O)OCC)C(C)(C)C5CC[C@]43C)C12 (stereo partly shown) [Compound 4d, 3,28-O,O'-Di(ethoxycarbonyl)betulin] | 52.6 ± 8.3 (≈ 89.6 µM) | 46.8 ± 21.6 (≈ 79.7 µM) | Neg | Neg |  | 84 to 86 | 69.1 ± 12.4 (≈ 118 µM) |  |  |  |  |  |
| C#CCCOC(=O)O[C@H]1CC[C@@]2(C)C(CC[C@]3(C)C2CCC2C4C(C(=C)C)CC[C@]4(COC(C)=O)CC[C@]23C)C1(C)C (stereo partly shown) [Compound 8b, 28-O-Acetyl-3-O'-(3-butynyloxycarbonyl)betulin] |  | 46.7 ± 16.2 (≈ 80.4 µM) | Neg | Neg | Neg | 118 to 121 |  | Neg |  |  |  |  |
| C=C(C)C1CC[C@]2(COC(=O)CC)CC[C@]3(C)C(CCC4[C@@]5(C)CC[C@H](O)C(C)(C)C5CC[C@]43C)C12 (stereo partly shown) [Compound 5c, 28-O-Propanoylbetulin] | 8.1 ± 0.9 (≈ 16.2 µM) | 3.3 ± 0.8 (≈ 6.62 µM) |  |  |  | 160 to 162 | 12.1 ± 4.4 (≈ 24.3 µM) |  | 29.2 ± 24.4 (≈ 58.5 µM) |  |  |  |
| C=C(C)C1CC[C@]2(COC(=O)OCC#CC)CC[C@]3(C)C(CCC4[C@@]5(C)CC[C@H](OC(=O)OCC#CC)C(C)(C)C5CC[C@]43C)C12 (stereo partly shown) [Compound 4c, 3,28-O,O'-Di(2-butynyloxycarbonyl)betulin] |  | 50.4 ± 31.1 (≈ 79.4 µM) | Neg | Neg | Neg | 70 to 73 |  | Neg |  |  |  |  |
| C#CCCOC(=O)OC[C@]12CCC(C(=C)C)C1C1CCC3[C@@]4(C)CC[C@H](OC(=O)OCCC#C)C(C)(C)C4CC[C@@]3(C)[C@]1(C)CC2 (stereo partly shown) [Compound 4b, 3,28-O,O'-Di(3-butynyloxycarbonyl)betulin] |  |  | Neg | Neg | Neg | 140 to 142 |  | Neg |  | Neg |  |  |
| C=C(C)[C@@H]1CC[C@]2(COC(C)=O)CC[C@]3(C)[C@H](CC[C@@H]4[C@@]5(C)CC[C@H](O)C(C)(C)[C@@H]5CC[C@]43C)[C@@H]12 [Compound 7a, 28-O-acetylbetulin] | 3.4 ± 0.3 (≈ 7.01 µM) | 12.5 ± 14.7 (≈ 25.8 µM) |  |  |  |  | 4.9 ± 0.6 (≈ 10.1 µM) |  | 5.1 ± 2.5 (≈ 10.5 µM) |  |  |  |
| C#CC(=O)OC[C@]12CCC(C(=C)C)C1C1CCC3[C@@]4(C)CC[C@H](OC(=O)C#C)C(C)(C)C4CC[C@@]3(C)[C@]1(C)CC2 (stereo partly shown) [Compound 6a, 3,28-O,O'-Dipropynoylbetulin] | 9.9 ± 7 (≈ 18.1 µM) | 31.9 ± 1.4 (≈ 58.3 µM) |  |  |  | 102 to 104 | 16.2 ± 4.3 (≈ 29.6 µM) |  | 9.5 ± 1.9 (≈ 17.4 µM) |  |  |  |
| C#CCCOC(=O)OC[C@]12CCC(C(=C)C)C1C1CCC3[C@@]4(C)CC[C@H](O)C(C)(C)C4CC[C@@]3(C)[C@]1(C)CC2 (stereo partly shown) [Compound 3b, 28-O-(3-Butynyloxycarbonyl)betulin] | 5.2 ± 1.4 (≈ 9.65 µM) | 3.6 ± 1.3 (≈ 6.68 µM) |  |  |  | 86 to 88 | 6.9 ± 2.3 (≈ 12.8 µM) |  | 22.6 ± 11.9 (≈ 41.9 µM) |  |  |  |
| C=C(C)C1CC[C@]2(COC(=O)CC)CC[C@]3(C)C(CCC4[C@@]5(C)CC[C@H](OC(=O)CC)C(C)(C)C5CC[C@]43C)C12 (stereo partly shown) [Compound 6c, 3,28-O,O'-Dipropanoylbetulin] |  | 68.1 ± 14.8 (≈ 123 µM) | Neg |  |  | 142 to 144 | 26.6 ± 6.8 (≈ 47.9 µM) | Neg | 42.3 ± 9.4 (≈ 76.2 µM) |  |  |  |
| C#CCOC(=O)O[C@H]1CC[C@@]2(C)C(CC[C@]3(C)C2CCC2C4C(C(=C)C)CC[C@]4(COC(C)=O)CC[C@]23C)C1(C)C (stereo partly shown) [Compound 8a, 28-O-Acetyl-3-O'-propargyloxycarbonylbetulin] |  |  | Neg | Neg | Neg | 188 to 189 |  | Neg |  | Neg |  |  |
| C=C(C)C1CC[C@]2(COC(=O)OCC#CC)CC[C@]3(C)C(CCC4[C@@]5(C)CC[C@H](O)C(C)(C)C5CC[C@]43C)C12 (stereo partly shown) [Compound 3c, 28-O-(2-Butynyloxycarbonyl)betulin] | 6.8 ± 2.9 (≈ 12.6 µM) | 5.5 ± 2.8 (≈ 10.2 µM) |  |  |  | 112 to 114 | 20.1 ± 5.3 (≈ 37.3 µM) |  | 36.9 ± 6.3 (≈ 68.5 µM) |  |  |  |
| C=C(C)C1CC[C@]2(COC(C)=O)CC[C@]3(C)C(CCC4[C@@]5(C)CC[C@H](OC(=O)OCC)C(C)(C)C5CC[C@]43C)C12 (stereo partly shown) [Compound 8d, 28-O-Acetyl-3-O'-(ethoxycarbonyl)betulin] |  |  | Neg | Neg | Neg | 200 to 202 |  | Neg |  | Neg |  |  |
| C#CC(=O)OCC12CCC(C(=C)C)C1C1CCC3C4(C)CCC(O)C(C)(C)C4CCC3(C)C1(C)CC2 (stereo not shown) [Compound 5a, 28-O-Propynoylbetulin] | 0.02 ± 0.001 (≈ 0.0404 µM) | 0.4 ± 0.1 (≈ 0.808 µM) |  |  |  |  | 9.1 ± 1.9 (≈ 18.4 µM) |  | 14.9 ± 3.3 (≈ 30.1 µM) |  | 0.02 (≈ 0.0404 µM) | 15 |
| C=C(C)C1CC[C@]2(COC(=O)OCC)CC[C@]3(C)C(CCC4[C@@]5(C)CC[C@H](O)C(C)(C)C5CC[C@]43C)C12 (stereo partly shown) [Compound 3d, 28-O-Ethoxycarbonylbetulin] | 4.1 ± 0.2 (≈ 7.96 µM) | 3.8 ± 1.9 (≈ 7.38 µM) |  |  |  | 94 to 96 | 6.6 ± 1.3 (≈ 12.8 µM) |  | 20.8 ± 14.7 (≈ 40.4 µM) |  |  |  |
| C#CCOC(=O)OC[C@]12CCC(C(=C)C)C1C1CCC3[C@@]4(C)CC[C@H](OC(=O)OCC#C)C(C)(C)C4CC[C@@]3(C)[C@]1(C)CC2 (stereo partly shown) [Compound 4a, 3,28-O,O'-Di(propargyloxycarbonyl)betulin] |  | 33.4 ± 1.7 (≈ 55 µM) | Neg | Neg | Neg | 125 to 127 |  | Neg |  |  |  |  |
| C=C(C)C1CC[C@]2(COC(C)=O)CC[C@]3(C)C(CCC4[C@@]5(C)CC[C@H](OC(=O)OCC#CC)C(C)(C)C5CC[C@]43C)C12 (stereo partly shown) [Compound 8c, 28-O-Acetyl-3-O'-(2-butynyloxycarbonyl)betulin] |  |  | Neg | Neg | Neg | 126 to 129 |  | Neg |  | Neg |  |  |
